The record followed here is patent US20070254903A1, “Novel Spiroindoline or Spiroisoquinoline Compounds, Methods of Use and Compositions Thereof” (ARENA PHARMACEUTICALS, INC., priority 2003, published 2007).

Assay [1] concerns isolated adult rat hearts. Kind of assay: Ischemia-Reperfusion Assay 1 (Langendorff apparatus). The following applies: 10 μM; 30 min ischemia, 30 min reperfusion; compared to vehicle; FIG. 2. On the procedure:
Male Sprague-Dawley rats (300-350 g body weight) were anesthetized with pentobarbital sodium (50 mg/kg IP) then heparin (400 IU IP) was administered 10 minutes prior to surgery. The chest wall was opened and the heart was rapidly excised and immediately placed into ice-cold Krebs-Henseleit (KH) buffer (118 mM NaCl, 4.7 mM KCl, 1.2 mM MgSO4, 1.2 mM KH2PO4, 1.5 mM CaCl2, 25 mM NaHCO3, 11 mM glucose, 1 mM pyruvate, and 0.005 mM EDTA) to produce cardiac arrest. The aorta was then cannulated and the heart retrogradely perfused with KH buffer maintained at 37° C. in a reservoir bubbled with 95% O2/5% CO2 (pH7.4) on the Langendorff apparatus at a constant pressure of 80 mmHg. Myocardial temperature was maintained at 37° C. by partially submerging the heart into a water-jacketed chamber filled with KH buffer. A water filled latex balloon attached to a metal cannula and inserted into the left ventricle via the mitral valve and connected to a pressure transducer (Powerlab, ADInstruments, Inc) was used for measurement of left ventricular pressure. The balloon was initially inflated to an end-diastolic pressure of 10 mmHg. […] The difference between peak-systolic and end diastolic pressures, or left ventricular developed pressure (LVDP) was calculated as an index of contractile function and measured just prior to ischemia and at the end of reperfusion. […]

A further assay has as its system rats. Nature of the assay: Measurement of blood pressure in rats (telemetry). It counts as in vivo, rat. The note with it: conscious rats, IP injection, about 120 minutes after injection; FIG. 6. The procedure:
Cardiac parameters were measured by small transmitting devices, (Data Sciences PhysioTel Telemetry devices), implanted in rats. The implanted transmitting devices were used to measure blood pressure in freely moving conscious animals. There are no external connections or tethering devices that can inhibit animal movement and induce unnecessary stress, which can affect the outcome of a study.
This procedure was performed under modified aseptic conditions. Rats were anesthetized with Isoflurane gas that ranged in concentration from 1.5-2.0%. A cardiac telemetry device was implanted into the peritoneal cavity with a pressure sensing catheter situated no more than 2 cm inside the descending aorta. This was accomplished as follows: The rat was shaved and the incision site was prepared with an iodine solution. The rat was then placed on a heating pad to maintain a constant body temp of 38±0.5° C., and covered with a sterile drape. A 6 cm midline abdominal incision was made to provide access to the implantation area. […] The rats were monitored for 7 days to ensure proper recovery.
On the test day, injections with either vehicle or with test compound were administered via IP injection in volumes of ˜250 μl. Animals were monitored with a resolution of approximately one measurement/min for 60 minutes before injection of vehicle or compound and for about 120 minutes after injection.

The test system of assay [2] is isolated adult rat hearts. Nature of the assay: Ischemia-Reperfusion Assay 2 (Langendorff apparatus). The procedure:
Male Sprague-Dawley rats (300-350 g body weight) were anesthetized with Inactin (100 mg/kg IP) 20 minutes prior to surgery. The chest wall was opened and the heart was rapidly excised and immediately placed into ice-cold Krebs-Henseleit (KH) buffer (118 mM NaCl, 4.7 mM KCl, 1.2 mM MgSO4, 1.2 mM KH2PO4, 1.5 mM CaCl2, 25 mM NaHCO3, 11 mM glucose […], and 0.005 mM EDTA) to produce cardiac arrest. The aorta was then cannulated and the heart retrogradely perfused with KH buffer maintained at 37° C. in a reservoir bubbled with 95% O2/5% CO2 (pH7.4) on the Langendorff apparatus at a constant pressure of 70 mmHg. Myocardial temperature was maintained at 37° C. by partially submerging the heart into a water-jacketed chamber filled with KH buffer. A water filled latex balloon attached to a metal cannula and inserted into the left ventricle via the mitral valve and connected to a pressure transducer (Powerlab, ADInstruments, Inc) was used for measurement of left ventricular pressure. The balloon was initially inflated to an end-diastolic pressure of 10 mmHg. After allowing 20 minutes for equilibration, rat hearts were subjected to 10 minutes of KH buffer containing drug or vehicle followed by 30 minutes of ischemia followed by 30 minutes of reperfusion. The difference between peak-systolic and end diastolic pressures, or left ventricular developed pressure (LVDP) was calculated as an index of contractile function and measured just prior to ischemia and at 10, 20 and 30 minutes of reperfusion. Percent recovery of LV function [(LVDP post reperfusion/LVDP pre-ischemia)[…]] was averaged across 5 vehicle and 4 drug treated hearts and one-way anova with Newman-Keuls Multiple Comparison Test was used to determine statistical significance.
Epicardial electrogram recordings were also taken from the isolated rat hearts used in FIGS. 3 and 4. Briefly, silver wire electrodes were placed on the right atrium and the apex of the left ventricle, allowing an epicardial electrogram to be recorded. […]

Each structure is given as a SMILES string.

As for `C=CCN1CCC2(CC1)CN(C(=O)c1cccc(F)c1F)c1ccc(F)cc12` [Compound 75, 1′-(allyl)-1,2-dihydro-5-fluoro-1-(2,3-difluoro-benzoyl)-spiro[3H-indole-3,4′-piperidine]], the “percent recovery of left ventricle function” value in assay [1] is listed as “significant increase in percent recovery of left ventricle function”. Moreover, the blood pressure change entry with rats is given as “did not result in a significant change in blood pressure”. In assay [2] (30 μM, 30 min ischemia, 30 min reperfusion, compared to vehicle, FIG. 3), the “left ventricle function after reperfusion” value is “significant increase in left ventricle function after reperfusion”. In addition, in assay [2] (30 μM, compared to vehicle, FIG. 4), the “end diastolic pressure (EDP), ischemic contracture” value is given as “significant decrease in end diastolic pressure”. Besides, in assay [2] (epicardial electrogram, first 5 minutes of reperfusion, FIG. 5), the “early reperfusion arrhythmias (hearts positive)” value is listed as “none of the four hearts”.
